ChEMBL document CHEMBL3879916, “1-sulfonyl piperidine derivatives as modulators of prokineticin receptors” (2014)

Molecular target: Prokineticin receptor 1 (Homo sapiens, UniProt Q8TCW9)
Assay: Antagonist activity at human PKR1 expressed in RBL2H3 cells assessed as inhibition of prokineticin1-mediated intracellular calcium release preincubated for 10 mins followed by PK1 addition by FLIPR assay
Type: functional, cell-based, RBL-2H3

Prokineticin receptor 1, sequence (Q8TCW9 whole entry): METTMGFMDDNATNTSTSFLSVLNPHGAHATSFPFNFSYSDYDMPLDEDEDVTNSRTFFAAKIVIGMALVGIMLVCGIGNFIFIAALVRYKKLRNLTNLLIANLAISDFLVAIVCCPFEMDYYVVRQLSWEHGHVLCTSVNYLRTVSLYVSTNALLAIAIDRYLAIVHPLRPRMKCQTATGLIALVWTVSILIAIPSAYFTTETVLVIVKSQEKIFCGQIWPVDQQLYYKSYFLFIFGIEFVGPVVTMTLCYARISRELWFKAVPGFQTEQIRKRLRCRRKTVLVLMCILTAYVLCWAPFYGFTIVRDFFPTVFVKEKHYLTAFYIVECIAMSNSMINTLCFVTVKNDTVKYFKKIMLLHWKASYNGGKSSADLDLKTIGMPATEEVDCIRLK

IC50: 1630 nM
Compound: Cc1n[nH]c(C)c1S(=O)(=O)N1CCC(=C(F)c2ccc(F)cc2F)CC1
